Test results reported in PubChem BioAssay AID248 (DTP/NCI, 2004).
Values joined by “and” are separate entries in the source; they are usually repeats but may differ in a detail not shown here. Equal values may be shown once. Inconclusive results and toxic doses are left out. Cut-off read from the data, not from the text of the source: active = T/C of 150% or more; inactive = T/C below 125%.

Test system: L1210 leukemia ip in BDF1 mice, survival T/C
Assay: NCI In Vivo Anticancer Drug Screen. Data for tumor model L1210 Leukemia (intraperitoneal) in B6D2F1 (BDF1) mice
Conditions: endpoint: mean survival time, higher = longer survival
Method in brief: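 Ratio derived from survival: compound-dosed mice over vehicle-dosed mice, all bearing a transplantable tumor.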

[1] = dose: 100.0 mg/kg/injection, schedule: Q01DX009 (ip), vehicle: Klucel (hydroxypropylcellulose) (HPC)
[2] = dose: 100.0 mg/kg/injection, schedule: Q01DX009 (ip), vehicle: saline with Tween-80
[3] = dose: 100.0 mg/kg/injection, schedule: Q04DX003 (ip), vehicle: saline with Tween-80
[4] = dose: 200.0 mg/kg/injection, schedule: Q01DX009 (ip), vehicle: Klucel (hydroxypropylcellulose) (HPC)
[5] = dose: 200.0 mg/kg/injection, schedule: Q01DX009 (ip), vehicle: saline with Tween-80
[6] = dose: 200.0 mg/kg/injection, schedule: Q04DX003 (ip), vehicle: saline with Tween-80
[7] = dose: 400.0 mg/kg/injection, schedule: Q01DX009 (ip), vehicle: saline with Tween-80
[8] = dose: 400.0 mg/kg/injection, schedule: Q04DX003 (ip), vehicle: saline with Tween-80
[9] = dose: 25.0 mg/kg/injection, schedule: Q01DX009 (ip), vehicle: saline with Tween-80
[10] = dose: 25.0 mg/kg/injection, schedule: Q04DX003 (ip), vehicle: saline with Tween-80
[11] = dose: 100.0 mg/kg/injection, schedule: Q04DX003 (ip), vehicle: saline
[12] = dose: 200.0 mg/kg/injection, schedule: Q04DX003 (ip), vehicle: saline
[13] = dose: 400.0 mg/kg/injection, schedule: Q01DX009 (ip), vehicle: Klucel (hydroxypropylcellulose) (HPC)
[14] = dose: 100.0 mg/kg/injection, schedule: Q01DX009 (ip), vehicle: saline
[15] = dose: 200.0 mg/kg/injection, schedule: Q01DX009 (ip), vehicle: saline
[16] = dose: 100.0 mg/kg/injection, schedule: Q01DX001 (ip), vehicle: saline
[17] = dose: 200.0 mg/kg/injection, schedule: Q01DX001 (ip), vehicle: saline
[18] = dose: 400.0 mg/kg/injection, schedule: Q01DX001 (ip), vehicle: saline
[19] = dose: 25.0 mg/kg/injection, schedule: Q01DX009 (ip), vehicle: saline
[20] = dose: 50.0 mg/kg/injection, schedule: Q01DX009 (ip), vehicle: saline
[21] = dose: 50.0 mg/kg/injection, schedule: Q01DX001 (ip), vehicle: saline

Measured: T/C

CC(=O)OCC(OC(C)=O)C(OC1OC(COC(C)=O)C(OC(C)=O)C(OC(C)=O)C1OC(C)=O)C(OC(C)=O)C(C=O)OC(C)=O (stereo unspecified)
inactive: dose: 50.0 mg/kg/injection, schedule: Q01DX009 (ip), vehicle: Klucel (hydroxypropylcellulose) (HPC) 96 % of control | [1] 89 % of control | [2] 102 % of control | [3] 102 % of control | [4] 89 % of control | [5] 102 % of control | [6] 105 % of control | [7] 102 % of control | [8] 94 % of control

Nc1ncc(C(=O)O)c(N)n1
inactive: dose: 12.5 mg/kg/injection, schedule: Q01DX001 (ip), vehicle: other 101 % of control | dose: 12.5 mg/kg/injection, schedule: Q01DX009 (ip), vehicle: saline with Tween-80 110 % of control | dose: 12.5 mg/kg/injection, schedule: Q04DX003 (ip), vehicle: saline with Tween-80 101 % of control | dose: 25.0 mg/kg/injection, schedule: Q01DX001 (ip), vehicle: other 97 % of control | [9] 107 % of control | [10] 104 % of control | dose: 50.0 mg/kg/injection, schedule: Q01DX001 (ip), vehicle: other 101 % of control | dose: 50.0 mg/kg/injection, schedule: Q01DX009 (ip), vehicle: saline with Tween-80 102 % of control | dose: 50.0 mg/kg/injection, schedule: Q04DX003 (ip), vehicle: saline with Tween-80 108 % of control | dose: 100.0 mg/kg/injection, schedule: Q01DX001 (ip), vehicle: other 103 % of control

NC(=O)NC1CCCCC1
inactive: [3] 87 % of control | [6] 97 % of control | [8] 92 % of control

Sc1ccc2ccccc2c1
inactive: [1] 94 % of control | [11] 91 % of control | [4] 121 % of control | [12] 88 % of control | [13] 110 % of control | dose: 400.0 mg/kg/injection, schedule: Q04DX003 (ip), vehicle: saline 86 % of control

C[CH2][Sn]([CH2]C)([CH2]C)[O]c1ccccc1
inactive: dose: 1.56 mg/kg/injection, schedule: Q01DX009 (ip), vehicle: saline with Tween-80 97 % of control | dose: 3.12 mg/kg/injection, schedule: Q01DX009 (ip), vehicle: saline with Tween-80 108 % of control

COc1ccc(OC)c(NC(=O)Nc2cc(OC)c(Cl)cc2OC)c1
inactive: [1] 105 % of control | [4] 94 % of control | [13] 87 % of control

O=C1OC(CO)C(OC2OC(CO)C(O)C(O)C2O)C(O)C1O (stereo unspecified)
inactive: [14] 97 % of control | [15] 98 % of control | dose: 400.0 mg/kg/injection, schedule: Q01DX009 (ip), vehicle: saline 97 % of control

O=C(Nc1cccc(S(=O)(=O)F)c1)c1ccc([N+](=O)[O-])cc1
inactive: [16] 107 % of control | [17] 103 % of control | [18] 90 % of control

COC(=O)Nc1ccccc1[N+](=O)[O-]
inactive: dose: 100.0 mg/kg/injection, schedule: Q04DX003 (ip), vehicle: other 103 % of control | dose: 200.0 mg/kg/injection, schedule: Q04DX003 (ip), vehicle: other 101 % of control | dose: 400.0 mg/kg/injection, schedule: Q04DX003 (ip), vehicle: other 111 % of control

NCCOB(c1ccccc1)c1ccccc1
inactive: dose: 3.8 mg/kg/injection, schedule: Q01DX009 (ip), vehicle: saline with Tween-80 94 % of control | dose: 7.5 mg/kg/injection, schedule: Q01DX009 (ip), vehicle: saline with Tween-80 105 % of control | dose: 15.0 mg/kg/injection, schedule: Q01DX009 (ip), vehicle: saline with Tween-80 91 % of control

CCCCOC(=O)c1ccc(NC(=O)Nc2c(C)cccc2C)cc1
inactive: dose: 100.0 mg/kg/injection, schedule: Q01DX009 (ip), vehicle: other 98 % of control | dose: 200.0 mg/kg/injection, schedule: Q01DX009 (ip), vehicle: other 89 % of control | dose: 400.0 mg/kg/injection, schedule: Q01DX009 (ip), vehicle: other 89 % of control

COc1cccc(CC2=NCCc3cc(OC)c(OC)cc32)c1
inactive: [19] 103 % of control | [20] 101 % of control | [14] 97 % of control | [11] 98 % of control

[O-][n+]1ccccc1CCl
inactive: [21] 98 % of control | [16] 100 % of control

Cc1nnc2ccnn2c1C
inactive: [16] 96 % of control | [17] 96 % of control | [18] 100 % of control

CC12CCC(O)C(C)(C)C1CCC1=C2CCC2(C)C(c3ccoc3)CCC12C (stereo unspecified)
inactive: dose: 50.0 mg/kg/injection, schedule: Q01DX001 (sc), vehicle: steriod suspending solution 111 % of control | dose: 100.0 mg/kg/injection, schedule: Q01DX001 (sc), vehicle: steriod suspending solution 115 % of control | dose: 200.0 mg/kg/injection, schedule: Q01DX001 (sc), vehicle: steriod suspending solution 105 % of control | dose: 400.0 mg/kg/injection, schedule: Q01DX001 (sc), vehicle: steriod suspending solution 109 % of control

CC12NC(=O)NC1(C)NC(=O)N2 (stereo unspecified)
inactive: [19] 89 % of control | [20] 95 % of control | [14] 96 % of control and 89 % of control | [3] 96 % of control | [15] 100 % of control | [6] 102 % of control | [8] 96 % of control

CCOC(=O)NNC(=O)Nc1ccc(Cl)c([N+](=O)[O-])c1
inactive: [14] 104 % of control | [15] 93 % of control

O=C(OCC(COC(=O)c1ccccc1)(COC(=O)c1ccccc1)[N+](=O)[O-])c1ccccc1
inactive: dose: 100.0 mg/kg/injection, schedule: Q04DX003 (ip), vehicle: Klucel (hydroxypropylcellulose) (HPC) 92 % of control | dose: 200.0 mg/kg/injection, schedule: Q04DX003 (ip), vehicle: Klucel (hydroxypropylcellulose) (HPC) 92 % of control | dose: 400.0 mg/kg/injection, schedule: Q04DX003 (ip), vehicle: Klucel (hydroxypropylcellulose) (HPC) 94 % of control

O=C(O)c1cncc(-c2ccccc2)c1
inactive: dose: 100.0 mg/kg/injection, schedule: Q04DX002 (ip), vehicle: saline with Tween-80 104 % of control | dose: 200.0 mg/kg/injection, schedule: Q04DX002 (ip), vehicle: saline with Tween-80 111 % of control

Nc1ccc(N=Nc2ccccc2)c2cccnc12 (tested in a mixture with another compound)
inactive: dose: 100.0 mg/kg/injection, schedule: Q04DX003 (sc), vehicle: olive oil, sesame oil, peanut oil 100 % of control | dose: 200.0 mg/kg/injection, schedule: Q04DX003 (sc), vehicle: olive oil, sesame oil, peanut oil 100 % of control | dose: 400.0 mg/kg/injection, schedule: Q04DX003 (sc), vehicle: olive oil, sesame oil, peanut oil 117 % of control

NCCCCC(N)C(=O)CCl (stereo unspecified)
inactive: dose: 25.0 mg/kg/injection, schedule: Q04DX002 (ip), vehicle: saline 110 % of control | dose: 50.0 mg/kg/injection, schedule: Q04DX002 (ip), vehicle: saline 97 % of control | dose: 100.0 mg/kg/injection, schedule: Q04DX002 (ip), vehicle: saline 94 % of control

CCn1c(C)[n+](CCCOS(=O)(=O)[O-])c2ccccc21
inactive: [11] 97 % of control | [12] 106 % of control

Cc1cc(C)[c]([Hg][Cl])c(C)c1
inactive: dose: 6.0 mg/kg/injection, schedule: Q01DX009 (ip), vehicle: saline with Tween-80 100 % of control | dose: 6.0 mg/kg/injection, schedule: Q04DX003 (ip), vehicle: saline with Tween-80 94 % of control | dose: 12.0 mg/kg/injection, schedule: Q01DX009 (ip), vehicle: saline with Tween-80 87 % of control | dose: 12.0 mg/kg/injection, schedule: Q04DX003 (ip), vehicle: saline with Tween-80 103 % of control | [9] 90 % of control | [10] 92 % of control

Cc1cc(CSc2ssc(=S)c2-c2ccccc2)c(CSc2ssc(=S)c2-c2ccccc2)cc1C
inactive: [2] 94 % of control | [3] 112 % of control | [5] 92 % of control | [6] 106 % of control | [7] 96 % of control | [8] 95 % of control

CN(C=O)c1cc([N+](=O)[O-])ccc1OCc1ccccc1
inactive: [21] 100 % of control | [16] 96 % of control | [17] 92 % of control | [18] 94 % of control

O=[N+]([O-])c1cccc(C=Nc2cc([N+](=O)[O-])ccc2O)c1
inactive: [1] 88 % of control | [4] 93 % of control
